Laboratory results as given in PubChem BioAssay AID276 (DTP/NCI, 2004).
Several values for one entry are separate records, joined by “and”; a condition that tells them apart may be missing. Identical values can stand only once. Inconclusive results and toxic doses are left out. How the source made its calls: active means survival T/C of 150% or more; inactive means T/C below 125% in these data.

System: B6C3F1 mice, Lewis lung carcinoma iv, survival T/C
Assay: NCI In Vivo Anticancer Drug Screen. Data for tumor model Lewis Lung Carcinoma (intravenous) in B6C3F1 mice
Conditions: endpoint: median survival time, schedule: Q01DX009 (ip), higher = longer survival
Outline: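 Read-out is survival, expressed as the treated-group measurement over the vehicle control-group measurement. Animals bore a transplantable tumor and were given compound.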

[1] = dose: 12.5 mg/kg/injection, vehicle: saline with Tween-80
[2] = dose: 25.0 mg/kg/injection, vehicle: saline with Tween-80
[3] = dose: 50.0 mg/kg/injection, vehicle: saline with Tween-80
[4] = dose: 100.0 mg/kg/injection, vehicle: saline with Tween-80
[5] = dose: 200.0 mg/kg/injection, vehicle: saline with Tween-80
[6] = dose: 25.0 mg/kg/injection, vehicle: Klucel (hydroxypropylcellulose) (HPC)
[7] = dose: 50.0 mg/kg/injection, vehicle: Klucel (hydroxypropylcellulose) (HPC)
[8] = dose: 100.0 mg/kg/injection, vehicle: Klucel (hydroxypropylcellulose) (HPC)
[9] = dose: 200.0 mg/kg/injection, vehicle: Klucel (hydroxypropylcellulose) (HPC)
[10] = dose: 12.0 mg/kg/injection, vehicle: saline
[11] = dose: 25.0 mg/kg/injection, vehicle: saline
[12] = dose: 50.0 mg/kg/injection, vehicle: saline
[13] = dose: 100.0 mg/kg/injection, vehicle: saline
[14] = dose: 200.0 mg/kg/injection, vehicle: saline
[15] = dose: 12.5 mg/kg/injection, vehicle: Klucel (hydroxypropylcellulose) (HPC)
[16] = dose: 6.25 mg/kg/injection, vehicle: saline
[17] = dose: 12.5 mg/kg/injection, vehicle: saline

Measured: T/C

COC(=O)C12OCC34C(CC5C(C)C6=CC(=O)OC6=CC5(C)C3C(O)C1O)OC(=O)C(OC(C)=O)C24 (stereo not drawn)
inactive: dose: 2.0 mg/kg/injection, vehicle: saline + alcohol 102 % of control | dose: 4.0 mg/kg/injection, vehicle: saline + alcohol 97 % of control | dose: 8.0 mg/kg/injection, vehicle: saline + alcohol 96 % of control | dose: 16.0 mg/kg/injection, vehicle: saline + alcohol 98 % of control | dose: 125.0 micrograms/kg/injection, vehicle: saline + alcohol 114 % of control | dose: 250.0 micrograms/kg/injection, vehicle: saline + alcohol 118 % of control | dose: 500.0 micrograms/kg/injection, vehicle: saline + alcohol 109 % of control | dose: 1000.0 micrograms/kg/injection, vehicle: saline + alcohol 106 % of control | dose: 2000.0 micrograms/kg/injection, vehicle: saline + alcohol 112 % of control

CN=S(=O)(OCCCCCOS(=O)(=NC)c1ccc(C)cc1)c1ccc(C)cc1 (stereo not drawn)
inactive: dose: 6.25 mg/kg/injection, vehicle: saline with Tween-80 99 % of control | [1] 99 % of control | [2] 91 % of control | [3] 94 % of control | [4] 92 % of control | [5] 96 % of control

O=NN(CCCl)C(=O)Oc1cc(Cl)c(Cl)cc1Cl
inactive: dose: 11.56 mg/kg/injection, vehicle: Klucel (hydroxypropylcellulose) (HPC) 105 % of control | dose: 23.13 mg/kg/injection, vehicle: Klucel (hydroxypropylcellulose) (HPC) 101 % of control | dose: 46.25 mg/kg/injection, vehicle: Klucel (hydroxypropylcellulose) (HPC) 122 % of control

C[C@]12CCC(=O)C=C1CC[C@@H]1[C@@H]2C(=O)C[C@@]2(C)[C@H]1CC[C@]2(O)C(=O)CO
inactive: [6] 95 % of control | [7] 99 % of control | [8] 98 % of control | [9] 103 % of control | dose: 400.0 mg/kg/injection, vehicle: Klucel (hydroxypropylcellulose) (HPC) 93 % of control

Cc1ccccc1CN1C2=NCCN2C(=O)C2=C1CCN(S(=O)(=O)c1ccc(Cl)c(S(N)(=O)=O)c1)C2
inactive: [10] 103 % of control | [11] 99 % of control | [12] 94 % of control | [13] 99 % of control and 101 % of control | [14] 96 % of control and 102 % of control | dose: 400.0 mg/kg/injection, vehicle: saline 94 % of control and 98 % of control

COc1cc2oc(=O)ccc2cc1[C@@H]1OC(=O)C2(C)O[C@@H]12 (stereo partly drawn)
inactive: dose: 0.16 mg/kg/injection, vehicle: water 106 % of control | dose: 0.31 mg/kg/injection, vehicle: water 94 % of control and 96 % of control | dose: 0.62 mg/kg/injection, vehicle: water 99 % of control and 112 % of control | dose: 1.25 mg/kg/injection, vehicle: water 91 % of control and 100 % of control | dose: 2.5 mg/kg/injection, vehicle: water 95 % of control and 100 % of control | dose: 5.0 mg/kg/injection, vehicle: water 97 % of control and 98 % of control | dose: 10.0 mg/kg/injection, vehicle: water 94 % of control

CC(C#N)(C#N)N=Nc1ccc(Cl)cc1Cl
inactive: [1] 98 % of control | [2] 104 % of control | [3] 109 % of control | [4] 110 % of control | [5] 106 % of control | dose: 400.0 mg/kg/injection, vehicle: saline with Tween-80 104 % of control

Cc1cc(NCCCCCCCCNc2cc(C)nc3cc(N(C)C)ccc23)c2ccc(N(C)C)cc2n1
inactive: dose: 3.12 mg/kg/injection, vehicle: distilled water + Tween-80 + alcohol 102 % of control | dose: 6.25 mg/kg/injection, vehicle: distilled water + Tween-80 + alcohol 102 % of control | dose: 12.5 mg/kg/injection, vehicle: distilled water + Tween-80 + alcohol 109 % of control | dose: 25.0 mg/kg/injection, vehicle: distilled water + Tween-80 + alcohol 111 % of control and 118 % of control

Cc1noc(N)c1N
inactive: dose: 12.5 mg/kg/injection, vehicle: water 101 % of control | dose: 25.0 mg/kg/injection, vehicle: water 95 % of control | dose: 50.0 mg/kg/injection, vehicle: water 102 % of control | dose: 100.0 mg/kg/injection, vehicle: water 92 % of control | dose: 200.0 mg/kg/injection, vehicle: water 98 % of control | dose: 400.0 mg/kg/injection, vehicle: water 106 % of control

Cc1cc(N2C(=O)CCSC2=S)ccc1Cl
inactive: [15] 120 % of control | [6] 97 % of control | [7] 102 % of control | [8] 111 % of control | [9] 124 % of control

c1csc(C[N+]23CN4CN(CN(C4)C2)C3)c1
inactive: [10] 100 % of control | [11] 101 % of control | [12] 96 % of control | [13] 96 % of control | [14] 110 % of control

COc1ccc(C(=O)C(CN(C)C)CN(C)C)cc1
inactive: dose: 1.56 mg/kg/injection, vehicle: saline 96 % of control | dose: 3.12 mg/kg/injection, vehicle: saline 102 % of control | [16] 102 % of control | [17] 105 % of control | [11] 105 % of control

O=C(O)CCCCCCCC(=O)O
inactive: dose: 12.5 mg/kg/injection, vehicle: distilled water + Tween-80 100 % of control | dose: 25.0 mg/kg/injection, vehicle: distilled water + Tween-80 99 % of control | dose: 50.0 mg/kg/injection, vehicle: distilled water + Tween-80 100 % of control | dose: 100.0 mg/kg/injection, vehicle: distilled water + Tween-80 98 % of control

CC1(C)COCN1COCCOCN1COCC1(C)C
inactive: [16] 103 % of control | [17] 108 % of control | [11] 97 % of control | [12] 104 % of control | [13] 107 % of control

O=C(C1CO1)C(Cl)(Cl)Cl (stereo not drawn)
inactive: dose: 1.5 mg/kg/injection, vehicle: saline 95 % of control | dose: 3.0 mg/kg/injection, vehicle: saline 92 % of control | dose: 6.0 mg/kg/injection, vehicle: saline 97 % of control | [10] 95 % of control | [2] 108 % of control

C=C1C(=O)OC2/C=C(\C)CC(O)/C=C(/CO)CC(OC(=O)/C(C)=C/C)C12 (stereo not drawn)
inactive: dose: 15.0 mg/kg/injection, vehicle: saline with Tween-80 91 % of control | dose: 30.0 mg/kg/injection, vehicle: saline with Tween-80 101 % of control

S=C(Nc1ccc(Cl)c(Cl)c1)N1c2ccccc2-n2cccc2C1c1cccnc1 (stereo not drawn)
inactive: [15] 106 % of control | [6] 109 % of control | [7] 98 % of control | [8] 102 % of control | [9] 113 % of control
